What all share (format): cell-based
One assay has as its system K. pneumoniae UMM. In words: MIC. The following applies: Klebsiella pneumoniae; K. pneumoniae UMM; read-out: MIC.
The subject of the next assay is E. coli 25922. In words: MIC. Particulars: Escherichia coli; E. coli 25922; read-out: MIC.
Assay [1] relates to Staphylococcus aureus strains (ATCC 33591, USA300, 158, 22, 2, ATCC 29213, 182). In words: MIC screening of lead compounds against S. aureus strains. The following applies: including vancomycin and methicillin resistant strains. An excerpt: A series of lead compounds identified in the in vitro screening were subjected to in vivo screening, to determine their effectiveness against S. aureus. The strains included Staphylococcus aureus, Methicillin Resistant (ATCC 33591), Methicillin-Resistant Staphylococcus aureus USA300, Staphylococcus aureus 158, Staphylococcus aureus 22, Staphylococcus aureus 2, Staphylococcus aureus (ATCC 29213), and Staphylococcus aureus 182.

Converted amounts (≈) assume the structure as drawn.

On to `Cc1ccc2nc(-c3ccc(NC(=O)CN4CCN(CCO)CC4)cc3)sc2c1` [Compound #169, 2-[4-(2-hydroxyethyl)-1-piperazinyl]-N-[4-(6-methyl-1,3-benzothiazol-2-yl)phenyl]acetamide], for which the MIC in the assay with K. pneumoniae UMM and in the assay with E. coli 25922 was greater than 128 µg/mL in each case. In assay [1], the “activity on types of S. aureus” value is listed as “showed activity on all types of S. aureus”.

Regarding `Brc1ccc(-c2nc(N3CCNCC3)c3ccccc3n2)cc1` [Compound #880, 2-(4-bromophenyl)-4-(1-piperazinyl)-quinazoline], the results for the MIC with K. pneumoniae UMM and with E. coli 25922 were greater than 128 µg/mL and 64 µg/mL (≈ 173 µM), respectively. Moreover, the “activity on types of S. aureus” value in assay [1] is on record as “showed activity on all types of S. aureus”.

The values above are taken from patent US10316371B2, “Screening methods for identifying specific Staphylococcus aureus inhibitors” (TRANA DISCOVERY, INC., priority 2011, dated 2019).
